Assay results: patent US6737383B1, “Herbicidal oxadiazolidines” (priority 1999, dated 2004)

Assays:
cocklebur = assay: Test B pre/postemergence cocklebur; assay type: in vivo, Xanthium strumarium
In short: (§1)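 Herbicidal effect was estimated by eye on a ten-point control scale after plants spent twelve to sixteen days in a greenhouse following soil or foliar treatment. Foliar sprays targeted plants at one to four leaves; all doses were formulated in a non-phytotoxic solvent with surfactant.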

corn = assay: Test B pre/postemergence corn; assay type: in vivo, Zea mays
In short: as §1

wild oat = assay: Test B pre/postemergence wild oat; assay type: in vivo, Avena fatua
In short: as §1

bamyardgrass = assay: Test B flood test barnyardgrass; assay type: in vivo, Echinochloa crus-galli
In short: (§2)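 Flood test on plants grown to the 2-leaf stage; treated plants kept in greenhouse twelve to sixteen days, then visually rated against controls on a 0 (no effect) to 10 (complete control) scale.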

bedstraw = assay: Test B pre/postemergence bedstraw; assay type: in vivo, Galium aparine
In short: as §1

soybean = assay: Test B pre/postemergence soybean; assay type: in vivo, Glycine max
In short: as §1

sugar beet = assay: Test B pre/postemergence sugar beet; assay type: in vivo, Beta vulgaris
In short: as §1

crabgrass = assay: Test B pre/postemergence crabgrass; assay type: in vivo, Digitaria sanguinalis
In short: as §1

morningglory = assay: Test B pre/postemergence morningglory; assay type: in vivo, Ipomoea hederacea
In short: as §1

surinam grass = assay: Test B pre/postemergence surinam grass; assay type: in vivo, Brachiaria decumbens
In short: as §1

velvetleaf = assay: Test B pre/postemergence velvetleaf; assay type: in vivo, Abutilon theophrasti
In short: as §1

duck salad = assay: Test B flood test duck salad; assay type: in vivo, Heteranthera limosa
In short: as §2

pigweed = assay: Test B pre/postemergence pigweed; assay type: in vivo, Amaranthus retroflexus
In short: as §1

smallflower flatsedge = assay: Test B flood test smallflower flatsedge; assay type: in vivo, Cyperus difformis
In short: as §2

rape = assay: Test B pre/postemergence rape; assay type: in vivo, Brassica napus
In short: as §1

rice = assay: Test B flood test rice; assay type: in vivo, Oryza sativa
In short: as §2

[1] = Postemergence, Rate 250 g/ha, scale 0 to 10, 0 no effect, 10 complete control
[2] = Preemergence, Rate 62 g/ha, scale 0 to 10 (0 no effect, 10 complete control)
[3] = Preemergence, Rate 125 g/ha, scale 0 to 10 (0 no effect, 10 complete control)
[4] = Preemergence, Rate 250 g/ha, scale of 0 to 10 where 0 is no effect and 10 is complete control
[5] = Preemergence, Rate 500 g/ha, scale 0 (no effect) to 10 (complete control)
[6] = Rate 125 g/ha, Postemergence, scale 0 to 10, 0 no effect, 10 complete control
[7] = Rate 500 g/ha, Postemergence, scale 0 to 10, 0 no effect, 10 complete control
[8] = Postemergence, Rate 62 g/ha, scale 0 to 10, 0 is no effect, 10 is complete control
[9] = Rate 125 g/ha, Postemergence section (flood test species), scale 0 to 10, 0 no effect, 10 complete control
[10] = Rate 250 g/ha, headed Pre-emergence (flood test species), scale 0 to 10 (0 no effect, 10 complete control)
[11] = Rate 500 g/ha, headed Pre-emergence (flood test species), scale 0 to 10 (0 no effect, 10 complete control)
[12] = Rate 500 g/ha, listed under Postemergence (flood test species), scale 0 to 10, 0 no effect, 10 complete control
[13] = Rate 1000 g/ha, Pre-emergence (as headed), scale 0 to 10
[14] = flood test, listed under Postemergence, Rate 250 g/ha, scale 0 to 10, 0 no effect, 10 complete control
[15] = Rate 2000 g/ha, Pre-emergence (as headed), scale 0 to 10

`CC(C)N(C(=O)n1oc(=O)n(Cc2ccccc2)c1=O)c1ccc(F)cc1` [Compound 78] was tested, and the “Cocklebur plant response rating” value (cocklebur; [1]) was 2, the “Cocklebur plant response rating” value (cocklebur; [2]) was 0 and the “Plant response rating, Cocklebur” value (cocklebur; [3]) was 0. The “Plant response rating, Cocklebur” value (cocklebur; [4]) was 0, the “Cocklebur plant response rating” value (cocklebur; [5]) was 0 and the “Cocklebur plant response rating” value (cocklebur; [6]) was 2. For the same compound, the “Cocklebur plant response rating” value (cocklebur; [7]) was 3, the “Corn plant response rating” value (corn; [8]) was 0 and the “Corn plant response rating” value (corn; [1]) was 0. For the same compound, the “Corn plant response rating” value (corn; [2]) was 0, the “Plant response rating, Corn” value (corn; [3]) was 0 and the “Plant response rating, Corn” value (corn; [4]) was 0. For the same compound, the “Corn plant response rating” value (corn; [5]) was 0, the “Corn plant response rating” value (corn; [6]) was 0 and the “Corn plant response rating” value (corn; [7]) was 0. For the same compound, the “Wild oats plant response rating” value (wild oat; [8]) was 0, the “Wild oats plant response rating” value (wild oat; [1]) was 0 and the “Wild oats plant response rating” value (wild oat; [2]) was 0. The “Plant response rating, Wild oats” value (wild oat; [3]) was 2, the “Plant response rating, Wild oats” value (wild oat; [4]) was 6 and the “Wild oats plant response rating” value (wild oat; [5]) was 6. For the same compound, the “Wild oats plant response rating” value (wild oat; [6]) was 0, the “Wild oats plant response rating” value (wild oat; [7]) was 2 and the “Barnyardgrass plant response rating” value (bamyardgrass; [8]) was 0. The “Barnyardgrass plant response rating” value (bamyardgrass; [9]) was 0, the “Barnyardgrass plant response rating” value (bamyardgrass; [10]) was 0 and the “Plant response rating, Barnyardgrass” value (bamyardgrass; [11]) was 0. For the same compound, the “Barnyardgrass plant response rating” value (bamyardgrass; [12]) was 7, the “Barnyardgrass plant response rating” value (bamyardgrass; [13]) was 0 and the “Barnyardgrass plant response rating” value (bamyardgrass; Rate 2000 g/ha, Pre-emergence (as headed), scale 0 to 10, 0 no effect, 10 complete control) was 3. For the same compound, the “Barnyardgrass plant response rating” value (bamyardgrass; [14]) was 3, the “Bedstraw plant response rating” value (bedstraw; [8]) was 0 and the “Bedstraw plant response rating” value (bedstraw; [1]) was 4. The “Bedstraw plant response rating” value (bedstraw; [2]) was 0, the “Plant response rating, Bedstraw” value (bedstraw; [3]) was 0 and the “Plant response rating, Bedstraw” value (bedstraw; [4]) was 0. For the same compound, the “Bedstraw plant response rating” value (bedstraw; [5]) was 0, the “Bedstraw plant response rating” value (bedstraw; [6]) was 0 and the “Bedstraw plant response rating” value (bedstraw; [7]) was 8. For the same compound, the “Soybean plant response rating” value (soybean; [8]) was 1, the “Soybean plant response rating” value (soybean; [1]) was 2 and the “Soybean plant response rating” value (soybean; [2]) was 0. For the same compound, the “Plant response rating, Soybean” value (soybean; [3]) was 0, the “Plant response rating, Soybean” value (soybean; [4]) was 0 and the “Soybean plant response rating” value (soybean; [5]) was 0. The “Soybean plant response rating” value (soybean; [6]) was 1, the “Soybean plant response rating” value (soybean; [7]) was 4 and the “Sugarbeets plant response rating” value (sugar beet; [8]) was 2. For the same compound, the “Sugarbeets plant response rating” value (sugar beet; [1]) was 4, the “Sugarbeets plant response rating” value (sugar beet; [2]) was 0 and the “Plant response rating, Sugarbeets” value (sugar beet; [3]) was 0. The “Plant response rating, Sugarbeets” value (sugar beet; [4]) was 5, the “Sugarbeets plant response rating” value (sugar beet; [5]) was 5 and the “Sugarbeets plant response rating” value (sugar beet; [6]) was 4. The “Sugarbeets plant response rating” value (sugar beet; [7]) was 7, the “Crabgrass plant response rating” value (crabgrass; [8]) was 0 and the “Crabgrass plant response rating” value (crabgrass; [1]) was 5. The “Crabgrass plant response rating” value (crabgrass; [2]) was 7, the “Plant response rating, Crabgrass” value (crabgrass; [3]) was 9 and the “Plant response rating, Crabgrass” value (crabgrass; [4]) was 9. The “Crabgrass plant response rating” value (crabgrass; [5]) was 10, the “Crabgrass plant response rating” value (crabgrass; [6]) was 2 and the “Crabgrass plant response rating” value (crabgrass; [7]) was 9. For the same compound, the “Morningglory plant response rating” value (morningglory; [8]) was 7, the “Morningglory plant response rating” value (morningglory; [1]) was 10 and the “Morningglory plant response rating” value (morningglory; [2]) was 0. The “Plant response rating, Morningglory” value (morningglory; [3]) was 0, the “Plant response rating, Morningglory” value (morningglory; [4]) was 0 and the “Morningglory plant response rating” value (morningglory; [5]) was 0. For the same compound, the “Morningglory plant response rating” value (morningglory; [6]) was 8, the “Morningglory plant response rating” value (morningglory; [7]) was 10 and the “B. signalgrass plant response rating” value (surinam grass; [8]) was 0. The “B. signalgrass plant response rating” value (surinam grass; [1]) was 4, the “B. signalgrass plant response rating” value (surinam grass; [2]) was 0 and the “Plant response rating, B. signalgrass” value (surinam grass; [3]) was 1. For the same compound, the “Plant response rating, B. signalgrass” value (surinam grass; [4]) was 5, the “B. signalgrass plant response rating” value (surinam grass; [5]) was 9 and the “B. signalgrass plant response rating” value (surinam grass; [6]) was 0. The “B. signalgrass plant response rating” value (surinam grass; Rate 500 g/ha, Postemergence, scale of 0 to 10 where 0 is no effect and 10 is complete control) was 6, the “Velvetleaf plant response rating” value (velvetleaf; [8]) was 2 and the “Velvetleaf plant response rating” value (velvetleaf; [1]) was 3. The “Velvetleaf plant response rating” value (velvetleaf; [2]) was 0, the “Plant response rating, Velvetleaf” value (velvetleaf; [3]) was 0 and the “Plant response rating, Velvetleaf” value (velvetleaf; [4]) was 2. For the same compound, the “Velvetleaf plant response rating” value (velvetleaf; [5]) was 7, the “Velvetleaf plant response rating” value (velvetleaf; [6]) was 2 and the “Velvetleaf plant response rating” value (velvetleaf; [7]) was 4. For the same compound, the “Ducksalad plant response rating” value (duck salad; [8]) was 0, the “Ducksalad plant response rating” value (duck salad; [9]) was 0 and the “Ducksalad plant response rating” value (duck salad; [10]) was 0. The “Plant response rating, Ducksalad” value (duck salad; [11]) was 0, the “Ducksalad plant response rating” value (duck salad; [12]) was 0 and the “Ducksalad plant response rating” value (duck salad; [13]) was 0. For the same compound, the “Ducksalad plant response rating” value (duck salad; [15]) was 0, the “Ducksalad plant response rating” value (duck salad; [14]) was 0 and the “Redroot pigweed plant response rating” value (pigweed; [8]) was 2. For the same compound, the “Redroot pigweed plant response rating” value (pigweed; [1]) was 3, the “Redroot pigweed plant response rating” value (pigweed; [2]) was 0 and the “Plant response rating, Redroot pigweed” value (pigweed; [3]) was 0. For the same compound, the “Plant response rating, Redroot pigweed” value (pigweed; [4]) was 6, the “Redroot pigweed plant response rating” value (pigweed; [5]) was 6 and the “Redroot pigweed plant response rating” value (pigweed; [6]) was 3. For the same compound, the “Redroot pigweed plant response rating” value (pigweed; [7]) was 6, the “S. Flatsedge plant response rating” value (smallflower flatsedge; [8]) was 0 and the “S. Flatsedge plant response rating” value (smallflower flatsedge; Pre-emergence, Rate 1000 g/ha, scale 0 to 10 (0 no effect, 10 complete control)) was 0. The “S. Flatsedge plant response rating” value (smallflower flatsedge; [9]) was 0, the “S. Flatsedge plant response rating” value (smallflower flatsedge; [10]) was 0 and the “Plant response rating, S. Flatsedge” value (smallflower flatsedge; [11]) was 0. The “S. Flatsedge plant response rating” value (smallflower flatsedge; [12]) was 4, the “S. Flatsedge plant response rating” value (smallflower flatsedge; [15]) was 7 and the “S. Flatsedge plant response rating” value (smallflower flatsedge; [14]) was 0. The “Rape plant response rating” value (rape; [8]) was 0, the “Rape plant response rating” value (rape; [1]) was 2 and the “Rape plant response rating” value (rape; [2]) was 0. For the same compound, the “Plant response rating, Rape” value (rape; [3]) was 0, the “Plant response rating, Rape” value (rape; [4]) was 5 and the “Rape plant response rating” value (rape; [5]) was 5. For the same compound, the “Rape plant response rating” value (rape; [6]) was 0, the “Rape plant response rating” value (rape; [7]) was 4 and the “Rice plant response rating” value (rice; [8]) was 0. The “Rice plant response rating” value (rice; [9]) was 0, the “Rice plant response rating” value (rice; [10]) was 0 and the “Plant response rating, Rice” value (rice; [11]) was 0. For the same compound, the “Rice plant response rating” value (rice; [12]) was 2, the “Rice plant response rating” value (rice; [13]) was 0 and the “Rice plant response rating” value (rice; [15]) was 0. For the same compound, the “Rice plant response rating” value (rice; [14]) was 0.
